Assay [1] relates to HepG-2 cells. The assay can be described thus: MTT cytotoxicity assay on HepG-2 cells. The following applies: Homo sapiens, HepG2; for viability at 1.25 µM: HepG-2, 1.25 µM; for viability at 1.25 µM / viability at 2.5 µM / viability at 5 µM / viability at 10 µM / viability at 20 µM / viability at 40 µM / viability at 80 µM / viability at 160 µM: Table S1; for viability at 2.5 µM: HepG-2, 2.5 µM; for viability at 5 µM: HepG-2, 5 µM; for viability at 10 µM: HepG-2, 10 µM; for viability at 20 µM: HepG-2, 20 µM; for viability at 40 µM: HepG-2, 40 µM; for viability at 80 µM: HepG-2, 80 µM; for viability at 160 µM: HepG-2, 160 µM; for IC50: MTT, 24 h treatment, mean of three experiments ± SEM. It is filed as cell-based, human. The protocol: (§1) Cytotoxic activity of the synthesized compounds was evaluated against HepG-2 and MCF-7 cancer cell lines using the MTT assay. The tested cell lines were obtained from the American Type Culture Collection (ATCC, […], USA) through the Tissue Culture Unit, The Egyptian Organization for Biological Products and Vaccines (Vacsera, Giza, Egypt). Indirubin, chemicals, and solvents were purchased from Sigma-Aldrich (St. Louis, MO, USA). The cells were grown on RPMI-1640 medium supplemented with 10% inactivated fetal calf serum and 50 µg/mL gentamycin. The cells were maintained at 37 °C in a humidified atmosphere with 5% CO2 and were sub-cultured two to three times per week. For antitumor assays, the tumor cell lines were suspended in the medium at concentration 5 × 10^4 cell/well in Corning® 96-well tissue culture plates (Corning, Corning, NY, USA), then incubated for 24 h. The tested molecules were then added to 96-well plates (six replicates) to achieve six concentrations for each compound. Six vehicle controls with media or 0.5% DMSO were run for each 96-well plate as a control. After incubating for 24 h, the numbers of viable cells were determined by the MTT test. Briefly, the media was removed from the 96 well plate and replaced with 100 µL of fresh culture RPMI 1640 medium without phenol red then 10 µL of the 12 mM MTT stock solution (5 mg of MTT in 1 mL of PBS) to each well including the untreated controls. The 96-well plates were then incubated at 37 °C and 5% CO2 for 4 h. An 85 µL aliquot of the media was removed from the wells, and 50 µL of DMSO was added to each well, mixed thoroughly with the pipette, and incubated at 37 °C for 10 min. Then, the optical density was measured at 590 nm with the microplate reader (SunRise, TECAN, Inc., Morrisville, NC, USA) to determine the number of viable cells, and the percentage of viability was calculated as […], where ODt is the mean optical density of wells treated with the tested sample and ODc is the mean optical density of untreated cells. The relation between surviving cells and drug concentration was plotted to obtain the survival curve of each tumor cell line after treatment with the specified compound. […] Each concentration was repeated four times.
On the technique in general: Formazan colour is commonly taken as a measure of viable cells.

The subject of assay [2] is MCF-7 cells. As to the kind of experiment: MTT cytotoxicity assay on MCF-7 cells. Conditions: Homo sapiens, MCF7; for viability at 1.25 µM: MCF-7, 1.25 µM; for viability at 2.5 µM: MCF-7, 2.5 µM; for viability at 5 µM: MCF-7, 5 µM; for viability at 10 µM: MCF-7, 10 µM; for viability at 20 µM: MCF-7, 20 µM; for viability at 40 µM: MCF-7, 40 µM; for viability at 80 µM: MCF-7, 80 µM; for viability at 160 µM: MCF-7, 160 µM. Format: cell-based. The protocol:
as §1

Setting [3] is: MTT, 24 h treatment, mean of three experiments ± SEM, read-out: IC50 (µM) MCF-7.
Setting [4] is: Table S2, read-out: IC50 (µM) on MCF-7 cell line.

The values that follow come from publication PMC11901902, “Design, Synthesis, and Cytotoxicity Evaluation of Novel Indolin-2-One Based Molecules on Hepatocellular Carcinoma HepG2 Cells as Protein Kinase Inhibitors” (Molecules, 2025).

Read-outs that look alike come from different tables or passages of the source.

The term viability denotes a read-out of living cells in per cent, often relative to untreated cells. What is called IC50 is the concentration that inhibits the measured activity by half. For `COc1ccc2c(c1)C(=Nc1ccc3nc[nH]c(=O)c3c1)C(=O)N2` [Compound 13, 6-(5-Methoxy-2-oxo-1,2-dihydro-indol-3-ylideneamino)-3H-quinazolin-4-one], in assay [1], the viability at 1.25 µM worked out at 88.2 ± 7.4%, the viability at 2.5 µM was 86.5%, the viability at 5 µM is 75.9 ± 4.6% and the viability at 10 µM is 61.5 ± 3.2%. Also, in assay [1], the viability at 20 µM was found to be 40.9 ± 2.7%, the viability at 40 µM was found to be 26.6 ± 1.5%, the viability at 80 µM was determined as 7.9 ± 0.9% and the viability at 160 µM is 3.9 ± 0.3%. Moreover, inhibition in assay [1] was half-maximal at 18.9 ± 1.05 µM (IC50). In addition, in assay [2] (Table S2), the viability at 1.25 µM was 109 ± 7.3%, the viability at 2.5 µM worked out at 108 ± 7.4%, the viability at 5 µM was 99.6 ± 6.5% and the viability at 10 µM was determined as 87.6 ± 4.6%. Besides, in assay [2] (Table S2), the viability at 20 µM worked out at 71.9 ± 3.2%, the viability at 40 µM was found to be 67.6 ± 2.7%, the viability at 80 µM stood at 60.8 ± 1.5% and the viability at 160 µM was determined as 56.8 ± 0.9%. Besides, the IC50 in assay [2] (setting [3]) was greater than 100 µM. Moreover, in assay [2] (setting [4]), the IC50 is 123 ± 13.2 µM.
Turning to `O=C1Nc2ccc(F)cc2/C1=N/c1ccc(-c2nc3ccccc3c(=O)[nH]2)cc1` [Compound 19, 2-[4-(5-Flouro-2-oxo-1,2-dihydro-indol-3-ylideneamino)-phenyl]-3H-quinazolin-4-one], in assay [1], the viability at 1.25 µM turned out to be 68.4 ± 6.6%, the viability at 2.5 µM was 75 ± 5.3%, the viability at 5 µM is 72.3 ± 5.9% and the viability at 10 µM stood at 58.4 ± 3.5%. Also, in assay [1], the viability at 20 µM came out at 46.3 ± 2.4%, the viability at 40 µM was 26.6 ± 1.7%, the viability at 80 µM was 13.6 ± 0.8% and the viability at 160 µM came to 7.47 ± 0.2%. The same compound had an IC50 in assay [1] of 28.4 ± 1.26 µM. Also, in assay [2] (Table S2), the viability at 1.25 µM is 109 ± 6.6%, the viability at 2.5 µM came out at 99.3 ± 5.3%, the viability at 5 µM amounted to 93.9 ± 4.9% and the viability at 10 µM came out at 81.2 ± 3.9%. In addition, in assay [2] (Table S2), the viability at 20 µM stood at 59 ± 2.4%, the viability at 40 µM was found to be 36.4 ± 1.7%, the viability at 80 µM was found to be 16.4 ± 1.8% and the viability at 160 µM was found to be 12 ± 1.2%. Also, the IC50 in assay [2] (setting [3]) came to 40.8 ± 3.24 µM.
On to `O=C1Nc2ccccc2C1=Nc1ccc(-c2nc3ccccc3c(=O)[nH]2)cc1` [Compound 18, 2-[4-(2-Oxo-1,2-dihydro-indol-3-ylideneamino)-phenyl]-3H-quinazolin-4-one], for which, in assay [1], the viability at 1.25 µM was determined as 78 ± 7.2%, the viability at 2.5 µM was 75.6 ± 6.8%, the viability at 5 µM amounted to 73.5 ± 5.8% and the viability at 10 µM is 55.9 ± 4.1%. Also, in assay [1], the viability at 20 µM came to 40.4 ± 2.9%, the viability at 40 µM amounted to 24.9 ± 2.8%, the viability at 80 µM was found to be 4.54 ± 0.23% and the viability at 160 µM amounted to 1.95 ± 0.19%. Moreover, in assay [1], the IC50 was 82.4 ± 7.17 µM. Also, in assay [2] (Table S2), the viability at 1.25 µM amounted to 109 ± 6.2%, the viability at 2.5 µM was 92 ± 6.8%, the viability at 5 µM worked out at 94.2 ± 5.8% and the viability at 10 µM stood at 80.8 ± 4.9%. In assay [2] (Table S2), the viability at 20 µM is 84.8 ± 2.9%, the viability at 40 µM was 83.8 ± 2.8%, the viability at 80 µM amounted to 74.3 ± 1.2% and the viability at 160 µM turned out to be 67.9 ± 0.8%. The IC50 in assay [2] (setting [3]) is greater than 100 µM. Also, in assay [2] (setting [4]), the IC50 was 143 ± 16.2 µM.
Consider `O=C1Nc2ccc(Br)cc2C1=Nc1ccc(-c2nc3ccccc3c(=O)[nH]2)cc1` [Compound 21, 2-[4-(5-Bromo-2-oxo-1,2-dihydro-indol-3-ylideneamino)-phenyl]-3H-quinazolin-4-one], for which, in assay [1], the viability at 1.25 µM was found to be 98.3 ± 7.7%, the viability at 2.5 µM came out at 82.5 ± 6.8%, the viability at 5 µM amounted to 77.8 ± 5.5% and the viability at 10 µM worked out at 61.4 ± 4.6%. Further, in assay [1], the viability at 20 µM was 47 ± 3.4%, the viability at 40 µM was found to be 23 ± 1.5%, the viability at 80 µM stood at 9.33 ± 1.1% and the viability at 160 µM was 6.14 ± 0.9%. The same compound yielded an IC50 in assay [1] of 23.7 ± 0.74 µM. Moreover, in assay [2] (Table S2), the viability at 1.25 µM is 103 ± 7.7%, the viability at 2.5 µM worked out at 99.6 ± 6.8%, the viability at 5 µM came out at 91.6 ± 5.5% and the viability at 10 µM is 78.2 ± 4.6%. For the same compound, in assay [2] (Table S2), the viability at 20 µM is 66.3 ± 3.4%, the viability at 40 µM amounted to 33.2 ± 2.5%, the viability at 80 µM worked out at 16 ± 1.1% and the viability at 160 µM was found to be 10.3 ± 0.9%. In addition, in assay [2] (setting [3]), the IC50 amounted to 33.6 ± 2.33 µM.
